Consider 15 compounds from patent US20040176431A1, “Antiproliferative 2-(sulfo-phenyl)-aminothiazole derivatives and pharmaceutical compositions, and methods for their use” (Pfizer, Inc., priority 2003, published 2004).

Some results are limits rather than exact numbers.

As a reminder, the IC50 is the midpoint of a concentration-inhibition curve. As usually defined, the IC90 is the point of the concentration-response curve where the effect stands at 90%.

The test system of one experiment is HCT-116 cells. In words: Inhibition of cell growth (MTT tetrazolium salt assay). It counts as cell-based. As to conditions: Homo sapiens; for IC50: read-out: HCT116 IC50; for IC90: read-out: HCT116 IC90. The method, boiled down:
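HCT-116 cells in McCoy's 5A were pre-incubated 4 h, then exposed to compounds in 0.5% DMSO for 4–6 days at 37 °C. MTT at 0.2 mg/mL final was added for 4 h and DMSO-solubilized formazan read at 540 nm. Values are relative to 0.5% DMSO-only controls.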

Another experiment has as its target T1, CDK2/cyclin A (Homo sapiens, UniProt P24941).
T1 construct: made in house; host or cells: CDK2: insect cells (baculovirus); cyclin A: E. coli, then limited proteolysis
As to the kind of experiment: Inhibition of CDK2/Cyclin A retinoblastoma kinase activity. The following applies: apparent Ki, Rb fragment substrate. It is filed as biochemical. The method, boiled down: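 Radiometric [32/33P]ATP transfer to an Rb fragment by CDK2 (insect cell, 10 or 19 nM) complexed with proteolyzed cyclin A; pH 7.4 HEPES, 25 μM ATP, 2% DMSO, 30 °C, 60 or 75 min, filter capture. Apparent Ki from competitive or tight-binding inhibition fits.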

The next experiment has as its target T2, CDK1 (cdc2)/cyclin B (Homo sapiens, UniProt P06493).
T2 construct: purchased New England Biolabs (Beverly Mass.)
As to the kind of experiment: Inhibition of CDK1(cdc2)/Cyclin B histone H1 kinase activity. The following applies: apparent Ki, histone H1 substrate. It counts as biochemical. The protocol:
Cyclin-dependent kinase activity was measured by quantifying the enzyme-catalyzed, time-dependent incorporation of radioactive phosphate from [^32P]ATP or [^33P]ATP into a protein substrate. Unless noted otherwise, assays were performed in 96-well plates in a total volume of 50 μL, in the presence of 10 mM HEPES (N-[2-hydroxyethyl]piperazine-N′-[2-ethanesulfonic acid]) (pH 7.4), 10 mM MgCl2, 25 μM adenosine triphosphate (ATP), 1 mg/mL ovalbumin, 5 μg/mL leupeptin, 1 mM dithiothreitol, 10 mM β-glycerophosphate, 0.1 mM sodium vanadate, 1 mM sodium fluoride, 2.5 mM ethylene glycol-bis(β-aminoethyl ether)-N,N,N′N′-tetraacetic acid (EGTA), 2% (v/v) dimethylsulfoxide, and 0.03-0.4 μCi [^32/33P]ATP per reaction. Reactions were initiated with enzyme, incubated at 30° C., and terminated after 20 minutes by the addition of ethylenediaminetetraacetic acid (EDTA) to 250 mM. The phosphorylated substrate was then captured on a nitrocellulose or phosphocellulose membrane using a 96-well filtration manifold, and unincorporated radioactivity was removed by repeated washing with 0.85% phosphoric acid. Radioactivity was quantified by exposing the dried membranes to a phosphorimager.
Inhibition was measured relative to control wells that contained all reaction components including 2% (v/v) DMSO but no compound, after subtraction of background radioactivity measured in the absence of enzyme. Apparent Ki values of discrete compounds were measured by assaying enzyme activity in the presence of different inhibitor compound concentrations and subtracting the background radioactivity measured in the absence of enzyme. The kinetic parameters (kcat, Km for ATP) were measured for each enzyme under the usual assay conditions by determining the dependence of initial rates on ATP concentration. […]
The complex of human CDK1 (cdc2) and cyclin B was purchased from New England Biolabs (Beverly Mass.). […] Phosphorylated histone substrate was captured by microfiltration on a phosphocellulose P81 membrane and quantified using a phosphorimager as described above.

In the next experiment the target is T3, CDK4/cyclin D3 (Homo sapiens, UniProt P11802).
T3 construct: made in house; host or cells: insect cells (baculovirus co-infection)
As to the kind of experiment: Inhibition of CDK4/Cyclin D retinoblastoma kinase activity. The following applies: apparent Ki, Rb fragment substrate. It is filed as biochemical. In a few lines:
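Human CDK4 with truncated cyclin D3 (1-264) from baculovirus-infected insect cells, 5 nM, phosphorylating His-tagged Rb fragment (386-928) with 25 μM [32P/33P]ATP in pH 7.4 HEPES/MgCl2, 2% DMSO, 30° C., 20 min (60 min for tight binders). Filter capture, phosphorimager; apparent Ki from competitive or tight-binding competitive fits.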

T2 sequence (P06493 whole entry): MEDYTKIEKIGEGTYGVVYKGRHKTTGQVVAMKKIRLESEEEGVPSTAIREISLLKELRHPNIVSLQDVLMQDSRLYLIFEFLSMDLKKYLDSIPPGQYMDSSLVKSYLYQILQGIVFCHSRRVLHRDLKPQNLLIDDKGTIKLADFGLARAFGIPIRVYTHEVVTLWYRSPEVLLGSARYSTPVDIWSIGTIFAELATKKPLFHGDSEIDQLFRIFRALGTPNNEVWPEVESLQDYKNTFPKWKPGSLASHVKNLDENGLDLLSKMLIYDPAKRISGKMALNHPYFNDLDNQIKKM
T2 sequence (P14635 whole entry partner): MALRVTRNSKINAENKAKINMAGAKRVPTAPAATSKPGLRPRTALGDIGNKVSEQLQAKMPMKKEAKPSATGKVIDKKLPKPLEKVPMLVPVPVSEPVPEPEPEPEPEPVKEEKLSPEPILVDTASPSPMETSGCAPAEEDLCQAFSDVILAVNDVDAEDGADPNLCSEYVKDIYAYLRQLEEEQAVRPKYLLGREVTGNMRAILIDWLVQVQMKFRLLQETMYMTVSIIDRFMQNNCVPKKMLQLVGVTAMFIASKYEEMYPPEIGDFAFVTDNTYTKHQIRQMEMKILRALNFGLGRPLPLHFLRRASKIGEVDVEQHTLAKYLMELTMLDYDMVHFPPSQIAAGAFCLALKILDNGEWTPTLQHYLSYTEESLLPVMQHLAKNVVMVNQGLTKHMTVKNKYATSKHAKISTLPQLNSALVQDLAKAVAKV
T3 sequence (P11802 whole entry): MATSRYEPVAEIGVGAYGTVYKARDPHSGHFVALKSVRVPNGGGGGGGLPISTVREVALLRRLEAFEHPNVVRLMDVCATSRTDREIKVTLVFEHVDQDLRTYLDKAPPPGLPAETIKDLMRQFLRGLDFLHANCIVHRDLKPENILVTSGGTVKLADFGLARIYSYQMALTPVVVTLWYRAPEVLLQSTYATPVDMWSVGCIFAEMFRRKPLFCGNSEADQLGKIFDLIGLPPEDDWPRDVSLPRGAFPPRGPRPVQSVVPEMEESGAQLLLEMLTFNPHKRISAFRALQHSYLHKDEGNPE
T3 sequence (P30281 1-264 partner limits assumed): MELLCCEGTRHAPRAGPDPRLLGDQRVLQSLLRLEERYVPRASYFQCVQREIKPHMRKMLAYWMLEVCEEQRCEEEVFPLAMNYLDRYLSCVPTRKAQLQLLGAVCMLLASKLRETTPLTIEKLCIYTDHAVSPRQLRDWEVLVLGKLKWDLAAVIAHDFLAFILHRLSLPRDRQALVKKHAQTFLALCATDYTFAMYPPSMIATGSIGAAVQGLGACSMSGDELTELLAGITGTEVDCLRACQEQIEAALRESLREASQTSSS

As for `CS(=O)(=O)c1ccc(Nc2nc(N)c(C(=O)c3c(Cl)cccc3Cl)s2)cc1` [AA(2), 4-Amino-5-(2,6-dichlorobenzoyl)-2-(4-methanesulfonyl-phenylamino)-thiazole], the IC50 in the experiment on HCT-116 cells was found to be 4500 nM. The IC90 in the experiment on HCT-116 cells came to 18000 nM. The Ki is 138 nM on CDK2/cyclin A, 93 nM at CDK1 (cdc2)/cyclin B and 42 nM at CDK4/cyclin D3.

Regarding `CC(CCCC(C)(C)O)NS(=O)(=O)c1ccc(Nc2nc(N)c(C(=O)c3c(F)cccc3F)s2)cc1` (stereo not drawn) [Example A(12), 4-[4-Amino-5-(2,6-difluoro-benzoyl)-thiazol-2-ylamino]-N-(5-hydroxy-1,5-dimethyl-hexyl)-benzenesulfonamide], the IC50 with HCT-116 cells is 150 nM. For the same compound, the IC90 in the experiment with HCT-116 cells stood at 630 nM. Besides, the Ki was below 5 nM at CDK2/cyclin A and 4.2 nM on CDK4/cyclin D3.

Take `COCCNS(=O)(=O)c1ccc(Nc2nc(N)c(C(=O)c3c(F)cccc3F)s2)cc1` [Example A(3)]: in the experiment with HCT-116 cells, the IC50 came to 340 nM and the concentration for an effect of 90% (IC90) came out at 720 nM. Further, on CDK2/cyclin A, the Ki turned out to be 3.5 nM. The Ki at CDK4/cyclin D3 was determined as 53 nM.

Regarding `Nc1nc(Nc2ccc(S(=O)(=O)NCCCCCO)cc2)sc1C(=O)c1c(F)cccc1F` [A(28), 4-[4-Amino-5-(2,6-difluoro-benzoyl)-thiazol-2-ylamino]-N-(5-hydroxy-pentyl)-benzenesulfonamide], in the experiment with HCT-116 cells, the IC50 is 1200 nM and the IC90 came to 2800 nM. Further, the Ki on CDK2/cyclin A came to 2.6 nM. Further, the Ki on CDK4/cyclin D3 stood at 12 nM.

On to `C[S+]([O-])c1ccc(Nc2nc(N)c(C(=O)c3c(Cl)cccc3Cl)s2)cc1` (stereo not drawn) [Z(4), 4-Amino-5-(2,6-dichlorobenzoyl)-2-(4-methanesulfinyl-phenylamino)-thiazole], for which the IC50 in the experiment with HCT-116 cells worked out at 4000 nM. Moreover, the IC90 with HCT-116 cells is 12000 nM. The Ki on CDK2/cyclin A amounted to 303 nM; on CDK1 (cdc2)/cyclin B, 120 nM; on CDK4/cyclin D3, 38 nM.

Regarding `Nc1nc(Nc2ccc(S(=O)(=O)N3CCNCC3)cc2)sc1C(=O)c1c(F)cccc1F` [Example A(1), {4-Amino-2-[4-(piperazine-1-sulfonyl)-phenylamino]-thiazol-5-yl}-(2,6-difluoro-phenyl)-methanone], in the experiment with HCT-116 cells, the IC50 is 1000 nM and the IC90 turned out to be 2700 nM. For the same compound, the Ki on CDK2/cyclin A is 14 nM. The Ki on CDK4/cyclin D3 turned out to be 26 nM.

For the compound `CC(C)OCCCNS(=O)(=O)c1ccc(Nc2nc(N)c(C(=O)c3c(F)cccc3F)s2)cc1` [Example A(10), 4-[4-Amino-5-(2,6-difluoro-benzoyl)-thiazol-2-ylamino]-N-(3-isopropoxy-propyl)-benzenesulfonamide], in the experiment with HCT-116 cells, the IC50 was found to be 900 nM and the 90% effect concentration (IC90) was 2200 nM. In addition, the Ki at CDK2/cyclin A came to 2.2 nM. Also, the Ki at CDK4/cyclin D3 came to 12 nM.

For `Nc1nc(Nc2ccc(S(=O)(=O)N3CCC(CCO)CC3)cc2)sc1C(=O)c1c(F)cccc1F` [Example A(16), (4-Amino-2-{4-[4-(2-hydroxy-ethyl)-piperidine-1-sulfonyl]-phenylamino}thiazol-5-yl)-(2,6-difluoro-phenyl)-methanone], in the experiment on HCT-116 cells, the IC50 came out at 1500 nM and the IC90 amounted to 3900 nM. In addition, the Ki on CDK2/cyclin A stood at 18 nM. In addition, the Ki at CDK4/cyclin D3 worked out at 57 nM.

For `Nc1nc(Nc2ccc(S(=O)(=O)NCCO)cc2)sc1C(=O)c1c(F)cccc1F` [Example A(4), 4-[4-Amino-5-(2,6-difluoro-benzoyl)-thiazol-2-ylamino]-N-(2-hydroxy-ethyl)-benzenesulfonamide], in the experiment on HCT-116 cells, the IC50 was 1000 nM and the IC90 was found to be 2800 nM. The Ki at CDK2/cyclin A amounted to 4.5 nM. The Ki at CDK4/cyclin D3 was determined as 28 nM.

As for `CC1CCCCN1CCCNS(=O)(=O)c1ccc(Nc2nc(N)c(C(=O)c3c(F)cccc3F)s2)cc1` (stereo not drawn) [Example A(15), 4-[4-Amino-5-(2,6-difluoro-benzoyl)-thiazol-2-ylamino]-N-[3-(2RS-methyl-piperidin-1-yl)-propyl]-benzenesulfonamide], in the experiment on HCT-116 cells, the IC50 was 460 nM and the concentration for an effect of 90% (IC90) was found to be 1800 nM. The Ki at CDK2/cyclin A was found to be 8.2 nM. The Ki at CDK4/cyclin D3 amounted to 8.4 nM.

As for `Nc1nc(Nc2ccc(S(=O)(=O)NC3CCNCC3)cc2)sc1C(=O)c1c(F)cccc1F` [BB(1), 4-[4-Amino-5-(2,6-difluoro-benzoyl)-thiazol-2-ylamino]-N-piperidin-4-yl-benzenesulfonamide], in the experiment on HCT-116 cells, the concentration for half-maximal inhibition (IC50) amounted to 22000 nM and the IC90 is above 50000 nM. Moreover, on CDK2/cyclin A, the Ki stood at 13 nM. The Ki at CDK4/cyclin D3 was determined as 13 nM.

For `Nc1nc(Nc2ccc(S(=O)(=O)NCCc3ccc(F)cc3)cc2)sc1C(=O)c1c(F)cccc1F` [Example A(20), 4-[4-Amino-5-(2,6-difluoro-benzoyl)-thiazol-2-ylamino]-N-[2-(4-fluoro-phenyl)-ethyl]-benzenesulfonamide], in the experiment on HCT-116 cells, the IC50 is 900 nM and the IC90 turned out to be 2600 nM. Further, the Ki on CDK2/cyclin A is below 5 nM. The Ki at CDK4/cyclin D3 came to 14 nM.

For `Nc1nc(Nc2ccc(S(=O)(=O)NCc3cc4ccccc4o3)cc2)sc1C(=O)c1c(F)cccc1F` [A(34), 4-[4-Amino-5-(2,6-difluoro-benzoyl)-thiazol-2-ylamino]-N-benzofuran-2-ylmethyl-benzenesulfonamide], the IC50 with HCT-116 cells was found to be 780 nM. In addition, in the experiment with HCT-116 cells, the IC90 amounted to 1800 nM. The Ki at CDK2/cyclin A is below 10 nM; on CDK4/cyclin D3 it was 5.1 nM.

On to `Cc1ccc(CNS(=O)(=O)c2ccc(Nc3nc(N)c(C(=O)c4c(F)cccc4F)s3)cc2)o1` [Example A(11), 4-[4-Amino-5-(2,6-difluoro-benzoyl)-thiazol-2-ylamino]-N-(5-methyl-furan-2-ylmethyl)-benzenesulfonamide], for which the IC50 in the experiment on HCT-116 cells stood at 43 nM. Further, the IC90 in the experiment on HCT-116 cells was found to be 140 nM. Besides, the Ki is below 5 nM on CDK2/cyclin A, 3.9 nM on CDK1 (cdc2)/cyclin B and 28 nM on CDK4/cyclin D3.

With `CS(=O)(=O)c1ccc(Nc2nc(N)c(C(=O)c3c(F)cccc3F)s2)cc1` [Q(1), 1-[4-Amino-2-(4-methanesulfonyl-phenylamino)-thiazol-5-yl]-1-(2,6-difluoro-phenyl)-methanone], in the experiment with HCT-116 cells, the IC50 is 1300 nM and the IC90 stood at 3800 nM. Besides, the Ki on CDK2/cyclin A was 210 nM. The Ki on CDK4/cyclin D3 was 73 nM.
